Data from publication PMC8867545 (ACS Omega, 2022).

Legend:
[1] = test system: β-glucosidase (β-Glcase); experiment: UV-vis absorption at […] nm, Lineweaver-Burk; format: biochemical, Prunus dulcis; details: 1x PBS pH 5.33, room temperature, 100 μg/mL enzyme, 5-200 μM substrate
[2] = test system: β-glucosidase (β-Glcase); experiment: UV-vis absorption at […] nm, Lineweaver-Burk; format: biochemical, Prunus dulcis; details: 1x PBS pH 5.33, room temperature, 100 μg/mL enzyme, 10-500 μM substrate

Row | Km [1] | Km [2] | Compound
1 | 162 µM |  | N#Cc1ccc(S[C@@H]2O[C@H](CO)[C@@H](O)[C@H](O)[C@H]2O)nc1 [Glc-p-MPN]
2 |  | 228 µM | N#Cc1cccnc1S[C@@H]1O[C@H](CO)[C@@H](O)[C@H](O)[C@H]1O [Glc-o-MPN]
